Data reported in patent US11884661B2, “3-substituted propionic acids as αV integrin inhibitors” (BRISTOL-MYERS SQUIBB COMPANY, priority 2016, dated 2024).

biological target: T1, human αVβ6 (Homo sapiens, UniProt P06756+P18564); assay: human αVβ6 HTRF binding assay; conditions: recombinant human αVβ6 integrin, FITC-conjugated fibronectin
T1 construct: purchased R & D systems 3817-AV
Method: All binding assays used the HTRF (homogeneous time resolved fluorescence) technology from Cisbio International, therefore all assays are described as HTRF binding assays. The assay results for the Examples are listed above together with the characterization data. The HTRF binding assays are established for the following integrins: human αVβ6, human αVβ1, human αVβ3, human αVβ5, and human αVβ8. All assays used the following assay buffer: 20 mM Tris, pH 7.4, 1 mM MgCl2, 1 mM MnCl2, 0.01% Tween 20, and 0.01% BSA. Alternatively, a SPA-based assay was used for evaluation of receptor binding.
The following describes the components and a representative procedure for the human αVβ6 HTRF binding assay: Recombinant human αVβ6 Integrin (R & D systems, 3817-AV) was biotinylated. Biotinylated human αVβ6 Integrin was added to assay vessel at a final concentration of 1.25 nM. FITC-conjugated fibronectin (Cytoskeleton, FNR02) was then added at the final concentration of 5 nM. The mixture was centrifuged at 600 rpm for three minutes using Thermo Fisher Heraeus Multifuge X3 centrifuge and then incubated at RT for an hour. Streptavidin Terbium (Cisbio international 610STLB) was then added at the final concentration of 0.625 nM. The resulting mixture was centrifuged at 600 rpm for three minutes using Thermo Fisher Heraeus Multifuge X3 centrifuge and then incubated at room temperature overnight in dark before reading HTRF signals.

T1 sequence (P06756 31-992 limits assumed): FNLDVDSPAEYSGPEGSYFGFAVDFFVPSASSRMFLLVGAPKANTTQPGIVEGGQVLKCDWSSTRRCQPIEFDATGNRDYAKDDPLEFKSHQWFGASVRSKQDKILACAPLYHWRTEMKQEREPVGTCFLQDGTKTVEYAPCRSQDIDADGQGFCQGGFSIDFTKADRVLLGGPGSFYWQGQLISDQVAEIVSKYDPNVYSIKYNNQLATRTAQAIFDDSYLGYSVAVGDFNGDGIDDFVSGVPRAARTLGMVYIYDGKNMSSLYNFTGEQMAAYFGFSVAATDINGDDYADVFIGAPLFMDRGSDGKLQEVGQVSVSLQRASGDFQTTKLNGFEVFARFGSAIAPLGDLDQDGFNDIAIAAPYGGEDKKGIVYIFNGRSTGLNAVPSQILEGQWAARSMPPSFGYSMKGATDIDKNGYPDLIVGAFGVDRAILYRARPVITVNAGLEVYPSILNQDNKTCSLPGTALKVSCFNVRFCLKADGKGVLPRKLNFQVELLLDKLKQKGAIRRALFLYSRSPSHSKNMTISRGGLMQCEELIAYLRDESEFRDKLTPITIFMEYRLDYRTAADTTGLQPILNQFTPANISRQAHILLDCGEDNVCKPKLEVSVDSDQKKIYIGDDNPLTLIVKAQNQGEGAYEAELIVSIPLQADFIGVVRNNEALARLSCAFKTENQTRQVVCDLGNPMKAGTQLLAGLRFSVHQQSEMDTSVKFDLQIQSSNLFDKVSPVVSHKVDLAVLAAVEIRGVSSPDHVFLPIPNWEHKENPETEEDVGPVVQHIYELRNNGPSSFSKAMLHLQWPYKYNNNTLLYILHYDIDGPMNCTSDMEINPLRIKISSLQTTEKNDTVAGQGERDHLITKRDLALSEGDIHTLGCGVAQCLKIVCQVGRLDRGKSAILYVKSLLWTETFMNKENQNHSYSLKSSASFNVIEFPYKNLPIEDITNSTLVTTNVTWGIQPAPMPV
T1 sequence (P18564 22-707 limits assumed): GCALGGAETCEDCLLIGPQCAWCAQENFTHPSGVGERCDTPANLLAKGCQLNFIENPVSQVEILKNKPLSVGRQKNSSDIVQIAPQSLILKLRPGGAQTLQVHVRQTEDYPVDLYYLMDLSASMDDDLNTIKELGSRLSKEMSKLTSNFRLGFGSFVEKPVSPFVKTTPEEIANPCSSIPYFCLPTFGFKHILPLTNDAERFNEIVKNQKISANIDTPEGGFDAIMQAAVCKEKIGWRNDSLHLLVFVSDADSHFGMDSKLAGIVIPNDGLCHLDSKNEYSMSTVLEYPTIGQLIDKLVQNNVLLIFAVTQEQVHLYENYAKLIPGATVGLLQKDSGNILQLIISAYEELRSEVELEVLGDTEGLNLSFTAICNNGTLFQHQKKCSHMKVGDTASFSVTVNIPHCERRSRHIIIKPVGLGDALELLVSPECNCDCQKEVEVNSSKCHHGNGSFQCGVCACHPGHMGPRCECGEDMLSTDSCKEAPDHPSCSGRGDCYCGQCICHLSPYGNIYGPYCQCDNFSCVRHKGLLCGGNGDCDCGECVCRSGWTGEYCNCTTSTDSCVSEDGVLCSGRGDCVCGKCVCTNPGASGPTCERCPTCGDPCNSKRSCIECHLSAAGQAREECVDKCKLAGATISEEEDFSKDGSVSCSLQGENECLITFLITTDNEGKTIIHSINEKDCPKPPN

IC50 [nM]	SMILES
24	CN(C)C(=O)c1cncc(C(CC(=O)O)n2nccc2CCCc2ccc3c(n2)NCCC3)c1 (racemic) [Example 72, (±)-3-[5-(dimethylcarbamoyl)pyridin-3-yl]-3-{5-[3-(5,6,7,8-tetrahydro-1,8-naphthyridin-2-yl)propyl]-1H-pyrazol-1-yl}propanoic acid]
25	COc1cc(C(CC(=O)O)n2nccc2CCCc2ccc3c(n2)NCCC3)ccn1 (racemic) [Example 73, (±)-3-(2-methoxypyridin-4-yl)-3-{5-[3-(5,6,7,8-tetrahydro-1,8-naphthyridin-2-yl)propyl]-1H-pyrazol-1-yl}propanoic acid]
13	CN(C)C(=O)c1cncc(C(CC(=O)O)n2ccc(CCCc3ccc4c(n3)NCCC4)n2)c1 (racemic) [Example 74, (±)-3-[5-(dimethylcarbamoyl)pyridin-3-yl]-3-{3-[3-(5,6,7,8-tetrahydro-1,8-naphthyridin-2-yl)propyl]-1H-pyrazol-1-yl}propanoic acid]
28	O=C(O)CC(c1cc(Cl)cc(Cl)c1)n1nccc1CCCc1ccc2c(n1)NCCC2 (racemic) [Example 75, (±)-3-(3,5-dichlorophenyl)-3-{5-[3-(5,6,7,8-tetrahydro-1,8-naphthyridin-2-yl)propyl]-1H-pyrazol-1-yl}propanoic acid]
55	O=C(O)CCCNc1cc(C(CC(=O)O)n2ccc(CCCc3ccc4c(n3)NCCC4)n2)ccn1 (racemic) [Example 76, (±)-4-{[4-(2-carboxy-1-{3-[3-(5,6,7,8-tetrahydro-1,8-naphthyridin-2-yl)propyl]-1H-pyrazol-1-yl}ethyl)pyridin-2-yl]amino}butanoic acid]
18	COc1ncc(C(CC(=O)O)n2nccc2CCCc2ccc3c(n2)NCCC3)cc1F (racemic) [Example 77, (±)-3-(5-fluoro-6-methoxypyridin-3-yl)-3-{5-[3-(5,6,7,8-tetrahydro-1,8-naphthyridin-2-yl)propyl]-1H-pyrazol-1-yl}propanoic acid]
300	O=C(O)CCCNc1cc(C(CC(=O)O)n2nccc2CCCc2ccc3c(n2)NCCC3)ccn1 (racemic) [Example 79, (±)-4-{[4-(2-carboxy-1-{5-[3-(5,6,7,8-tetrahydro-1,8-naphthyridin-2-yl)propyl]-1H-pyrazol-1-yl}ethyl)pyridin-2-yl]amino}butanoic acid]
17	Cc1ncc(C(CC(=O)O)n2ccc(CCCc3ccc4c(n3)NCCCC4)n2)cn1 (racemic) [Example 96, (±)-3-(2-methylpyrimidin-5-yl)-3-(3-(3-(6,7,8,9-tetrahydro-5H-pyrido[2,3-b]azepin-2-yl)propyl)-1H-pyrazol-1-yl)propanoic acid]
410	Cc1ncc(C(CC(=O)O)n2nccc2CCCc2ccc3c(n2)NCCCC3)cn1 (racemic) [Example 99, (±)-3-(2-methylpyrimidin-5-yl)-3-(5-(3-(6,7,8,9-tetrahydro-5/Z-pyrido[2,3-b]azepin-2-yl)propyl)-1H-pyrazol-1-yl)propanoic acid]
6.4	COc1ccc(C(CC(=O)O)n2ccc(CCCc3ccc4c(n3)NCCCC4)n2)cn1 (racemic) [Example 100, (±)-3-(6-methoxypyridin-3-yl)-3-(3-(3-(6,7,8,9-tetrahydro-5H-pyrido[2,3-b]azepin-2-yl)propyl)-1H-pyrazol-1-yl)propanoic acid]
30	COc1ncc(C(CC(=O)O)n2ccc(CCCc3ccc4c(n3)NCCCC4)n2)cn1 (racemic) [Example 103, (±)-3-(2-methoxypyrimidm-5-yl)-3-(3-(3-(6,7,8,9-tetrahydro-5H-pyrido| 2,3-6 |azepin-2-yl)propyl)-1H-pyrazol-1-yl)propanoic acid]
820	COc1ncc(C(CC(=O)O)n2nccc2CCCc2ccc3c(n2)NCCCC3)cn1 (racemic) [Example 106, (±)-3-(2-methoxypyrimidin-5-yl)-3-(5-(3-(6,7,8,9-tetrahydro-5H-pyrido[2,3-b]azepin-2-yl)propyl)-1H-pyrazol-1-yl)propanoic acid]
4.9	COc1cncc(C(CC(=O)O)n2ccc(CCCc3ccc4c(n3)NCCCC4)n2)c1 (racemic) [Example 107, (±)-3-(5-methoxypyridin-3-yl)-3-(3-(3-(6,7,8,9-tetrahydro-5H-pyrido[2,3-b]azepin-2-yl)propyl)-1H-pyrazol-1-yl)propanoic acid]
170	COc1cncc(C(CC(=O)O)n2nccc2CCCc2ccc3c(n2)NCCCC3)c1 (racemic) [Example 108, (±)-3-(5-methoxypyridin-3-yl)-3-(5-(3-(6,7,8,9-tetrahydro-5H-pyrido[2,3-b]azepin-2-yl)propyl)-1H-pyrazol-1-yl)propanoic acid]
210	COc1ccc(C(CC(=O)O)n2ccc(CCCc3ccc4c(n3)NCCC4)n2)cn1 (single isomer, unassigned) [Example 4, 3-(6-Methoxypyridin-3-yl)-3-(3-(3-(5,6,7,8-tetrahydro-1,8-naphthyridin-2-yl)propyl)-1H-pyrazol-1-yl)propanoic acid]
77	COc1ccc(C(CC(=O)O)c2nc(CCCCc3ccc4c(n3)NCCC4)cs2)cn1 (single isomer, unassigned) [Example 13, 3-(6-Methoxypyridin-3-yl)-3-(4-(4-(5,6,7,8-tetrahydro-1,8-naphthyridin-2-yl)butyl)thiazol-2-yl)propanoic acid]
36	COc1ccc(C(CC(=O)O)c2nc(CCCc3ccc4c(n3)NCCC4)cs2)cn1 (single isomer, unassigned) [Example 16, 3-(6-Methoxypyridin-3-yl)-3-(4-(3-(5,6,7,8-tetrahydro-1,8-naphthyridin-2-yl)propyl)thiazol-2-yl)propanoic acid]
16	COc1ccc(C(CC(=O)O)c2ncc(CCCCc3ccc4c(n3)NCCC4)s2)cn1 (single isomer, unassigned) [Example 17, 3-(6-Methoxypyridin-3-yl)-3-(5-(4-(5,6,7,8-tetrahydro-1,8-naphthyridin-2-yl)butyl)thiazol-2-yl)propanoic acid]
6.7	COc1ccc(C(CC(=O)O)c2ncc(CCCCc3ccc4c(n3)NCCC4)s2)cn1 (single isomer, unassigned) [Example 18, 3-(6-Methoxypyridin-3-yl)-3-(5-(4-(5,6,7,8-tetrahydro-1,8-naphthyridin-2-yl)butyl)thiazol-2-yl)propanoic acid]
44	COc1ccc(C(CC(=O)O)c2ncc(CCCc3ccc4c(n3)NCCC4)s2)cn1 (single isomer, unassigned) [Example 19, 3-(6-Methoxypyridin-3-yl)-3-(5-(3-(5,6,7,8-tetrahydro-1,8-naphthyridin-2-yl)propyl)thiazol-2-yl)propanoic acid]
18	COc1ccc(C(CC(=O)O)c2ncc(CCCc3ccc4c(n3)NCCC4)s2)cn1 (single isomer, unassigned) [Example 20, 3-(6-Methoxypyridin-3-yl)-3-(5-(3-(5,6,7,8-tetrahydro-1,8-naphthyridin-2-yl)propyl)thiazol-2-yl)propanoic acid]
157	COc1ccc(C(CC(=O)O)c2nc(CCCCc3ccc4c(n3)NCCC4)cs2)cc1F (single isomer, unassigned) [Example 36, 3-(3-Fluoro-4-methoxyphenyl)-3-(4-(4-(5,6,7,8-tetrahydro-1,8-naphthyridin-2-yl)butyl)thiazol-2-yl)propanoic acid]
23	COc1ccc(C(CC(=O)O)c2nc(CCCc3ccc4c(n3)NCCC4)cs2)cc1F (single isomer, unassigned) [Example 39, 3-(3-Fluoro-4-methoxyphenyl)-3-(4-(3-(5,6,7,8-tetrahydro-1,8-naphthyridin-2-yl)propyl)thiazol-2-yl)propanoic acid]
5.9	COc1ccc(C(CC(=O)O)c2ncc(CCCCc3ccc4c(n3)NCCC4)s2)cc1F (single isomer, unassigned) [Example 41, (3-Fluoro-4-methoxyphenyl)-3-(5-(4-(5,6,7,8-tetrahydro-1,8-naphthyridin-2-yl)butyl)thiazol-2-yl)propanoic acid]
28	COc1ccc(C(CC(=O)O)c2ncc(CCCc3ccc4c(n3)NCCC4)s2)cc1F (single isomer, unassigned) [Example 42, 3-(3-Fluoro-4-methoxyphenyl)-3-(5-(3-(5,6,7,8-tetrahydro-1,8-naphthyridin-2-yl)propyl)thiazol-2-yl)propanoic acid]
18	COc1ccc(C(CC(=O)O)c2ncc(CCCc3ccc4c(n3)NCCC4)s2)cc1F (single isomer, unassigned) [Example 43, 3-(3-Fluoro-4-methoxyphenyl)-3-(5-(3-(5,6,7,8-tetrahydro-1,8-naphthyridin-2-yl)propyl)thiazol-2-yl)propanoic acid]
210	O=C(O)CC(c1cncc(N2CCOCC2)c1)n1ccc(CCCc2ccc3c(n2)NCCC3)n1 (single isomer, unassigned) [Example 67, 3-[5-(morpholin-4-yl)pyridin-3-yl]-3-{3-[3-(5,6,7,8-tetrahydro-1,8-naphthyridin-2-yl)propyl]-1H-pyrazol-1-yl}propanoic acid]
2.8	O=C(O)CC(c1cncc(N2CCOCC2)c1)n1ccc(CCCc2ccc3c(n2)NCCC3)n1 (single isomer, unassigned) [Example 68, 3-[5-(morpholin-4-yl)pyridin-3-yl]-3-{3-[3-(5,6,7,8-tetrahydro-1,8-naphthyridin-2-yl)propyl]-1H-pyrazol-1-yl}propanoic acid]
